US12522612B2, “PDE4 inhibitors, pharmaceutical compositions, and therapeutic applications” (BioTheryX, Inc., priority 2019, dated 2026)

Assays:
PDE4D short isoform = assay: Protein degradation assay in A549 cells, western blot, PDE4D; format: cell-based; details: 24 h treatment, same conditions
Experimental: (§1) A549 cells were grown in RPMI 1640 media supplemented with 10% fetal bovine serum, streptomycin, and penicillin. The cells were plated in 6-well plates in the growth media. The next day, fresh growth media were replaced on the cells. The cells were then treated with a compound for 24 h at predetermined concentrations. Whole cell extracts were prepared using an immunoprecipitation (IP) lysis buffer. Briefly, the cells were washed once in PBS, and the cell pellets were resuspended in the IP lysis buffer and incubated for 15 min on ice. Cells debris was removed by centrifugation and the cleared whole cell lysates were transferred to new tubes for further analysis.
(§2) For a western blot analysis, the whole cell protein extracts were separated on 4-12% SDS-polyacrylamide gels, transferred to nitrocellulose, and probed with primary antibodies. Membranes were subsequently washed and probed with IRDYE® secondary antibodies. The signals were detected using an ODYSSEY® Imaging System. The antibodies used in the assay included anti-PDE4B antibody; anti-PDE4D antibodies (top, bottom, and short isoform); β-actin mouse monoclonal antibody; IRDYE® 680RD goat anti-rabbit antibody; and IRDYE® 800CW goat anti-mouse antibody. Compounds B2 to B4, B18, B49 to B52, B76, B77, B79, B81 to B83, B88, B89, and B91 were determined to be able to degradate PDE4B as high as about 50% relative to DMSO.

TNF-α = assay: Cell-based TNF-α inhibition assay in LPS-induced PBMCs (Meso Scale); details: PBMC; compound concentration 1 μM; PBMCs pretreated 1 h, LPS 100 ng/mL 18-24 h; relative to stimulated DMSO control
How it was run: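 Thawed human PBMCs (200,000/well) in RPMI/10% FBS were pretreated with compound or DMSO for 1 h, then stimulated with LPS (100 ng/mL) for 18-24 h. Supernatant TNF-α was measured by Meso Scale; activity expressed as percent of stimulated DMSO control (percent inhibition).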

PDE4B = molecular target: T1, PDE4B (Homo sapiens, UniProt Q07343); assay: Protein degradation assay in A549 cells, western blot, PDE4B; format: cell-based; details: 24 h treatment, read-out: PDE4B degradation relative to DMSO
T1 construct: Whole cell extracts were prepared using an immunoprecipitation (IP) lysis buffer; endogenous in cells; host or cells: A549
Experimental: as §1, §2

T1 sequence (Q07343 whole entry): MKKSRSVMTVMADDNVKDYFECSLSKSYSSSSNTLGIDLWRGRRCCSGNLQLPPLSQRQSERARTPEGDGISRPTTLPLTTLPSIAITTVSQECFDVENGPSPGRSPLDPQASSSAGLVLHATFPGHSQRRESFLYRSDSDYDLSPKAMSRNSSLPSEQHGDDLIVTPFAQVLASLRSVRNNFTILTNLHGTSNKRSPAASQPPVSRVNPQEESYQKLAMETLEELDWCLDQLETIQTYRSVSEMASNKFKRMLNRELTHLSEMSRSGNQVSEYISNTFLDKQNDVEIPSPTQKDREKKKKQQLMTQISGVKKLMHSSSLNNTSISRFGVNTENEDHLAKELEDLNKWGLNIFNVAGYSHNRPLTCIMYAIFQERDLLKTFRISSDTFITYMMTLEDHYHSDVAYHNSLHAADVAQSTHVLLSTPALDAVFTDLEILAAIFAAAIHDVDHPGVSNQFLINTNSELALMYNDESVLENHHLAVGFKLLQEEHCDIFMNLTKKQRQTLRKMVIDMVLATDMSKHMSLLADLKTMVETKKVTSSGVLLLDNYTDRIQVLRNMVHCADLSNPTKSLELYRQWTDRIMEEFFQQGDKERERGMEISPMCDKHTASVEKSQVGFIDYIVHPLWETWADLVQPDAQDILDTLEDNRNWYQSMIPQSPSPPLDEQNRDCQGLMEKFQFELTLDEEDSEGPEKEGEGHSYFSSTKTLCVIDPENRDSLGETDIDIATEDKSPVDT

| SMILES | PDE4D degradation (result in words) (PDE4D short isoform) | inhibition at 1 µM (TNF-α) [%] | Dmax (PDE4B) [%] |
| --- | --- | --- | --- |
| CCOc1cc([C@@H](CS(C)(=O)=O)N2C(=O)c3cccc(NC(C)=O)c3C2=O)ccc1OC [apremilast] | did not degradate the PDE4D |  |  |
| COc1ccc(N2C(=O)c3ccc(N)cc3C2=O)cc1OCCCCCCCN1CCC(c2cc(F)cc3c2CN(C2CCC(=O)NC2=O)C3=O)CC1 (centres unmarked) [Compound B52, 5-Amino-2-(3-((7-(4-(2-(2,6-dioxopiperidin-3-yl)-6-fluoro-1-oxoisoindolin-4-yl)piperidin-1-yl)heptyl)oxy)-4-methoxyphenyl)isoindoline-1,3-dione] |  | < 20 | ≤ 50 |
| O=C1CCC(N2Cc3c(cc(F)cc3C3CCN(CCCOc4cc(C(=O)Nc5c(Cl)cncc5Cl)ccc4OC(F)F)CC3)C2=O)C(=O)N1 (centres unmarked) [Compound B83, N-(3,5-Dichloropyridin-4-yl)-4-(difluoromethoxy)-3-(3-(4-(2-(2,6-dioxopiperidin-3-yl)-6-fluoro-1-oxoisoindolin-4-yl)piperidin-1-yl)propoxy)benzamide] |  | 20 to 40 | ≤ 50 |
